Test results reported in patent US6552039B2, “Fungicidal combinations comprising a 4-phenoxyquinoline” (Syngenta Crop Protection, Inc., priority 1998, dated 2003).
Like-named read-outs stand apart in the source and are kept apart here.

Columns and labels:
Assay type in all cases: in vivo
Septoria spp. = assay: Activity against Septoria, field trial, winter wheat cv. Consort (Example B-8); conditions: for % infested leaf after 84 days: winter wheat field trial, untreated control 97
Protocol: A field trial was carried out in Great Britain with winter wheat, cv. Consort. The experiment was arranged with 4 replicates in randomized plots each of 36 m^2. Application was carried out at 5-10% infected leaf area on the lower leaves. Cyproconazole was used as a EC240, quinoxyfen as a SC500 and the mixture cyproconazole/quinoxyfen as a SC155 formulation. Cyproconazole was applied at 80 g a.i./ha, quinoxyfen at 75 g a.i./ha and the mixture contained the same amounts of the individual active ingredients. The spray volume of all treatments was 200 l/ha. Disease assessment of Septoria spp. was estimated 84 days after application when the untrated control plants had approximated 97% infected leaf area. Results are expressed as % activity calculated on the basis of % infected leaf area.

[1] = test system: Erysiphe graminis f. sp. tritici; assay: Efficacy against Erysiphe graminis f.sp. tritici on wheat (Example B-5), foliar spray, synergy by COLBY
Excerpt: A synergistic effect exists whenever the action of an active ingredient combination is greater than the sum of the actions of the individual components.
The action to be expected E for a given active ingredient combination obeys the so-called COLBY formula and can be calculated as follows (COLBY, S. R. “Calculating synergistic and antagonistic responses of herbicide combination”. Weeds, Vol. 15, pages 20-22; 1967):
According to Colby, the expected (additive) action of active ingredients I+II using p+q ppm of active ingredient is [formula]
If the action actually observed (O) is greater than the expected action (E), then the action of the combination is superadditive, i.e. there is a synergistic effect.
Five to ten wheat seeds c.v. “Arina” are sown in plastic pots of 7 cm diameter and grown for 7 to 12 days at 20° C., 50-70% rH. When the primary leaves have fully expanded, the plants are spray treated with aqueous spray liquors containing the single compounds, or mixtures thereof (hereinafter a.i.). All compounds are used as experimental or commercially available formulations, combinations are applied as tank mixtures. The application comprises foliar spraying to near runoff (three pots per treatment). 24 hours after the application or 24 hours before application, the plants are inoculated in a settling tower with fresh spores of Erysiphe graminis f. sp. tritici. The plants are then incubated in a growth chamber at 20° C., 60% rH. Seven days after the inoculation, the percentage of infection on primary leaves is evaluated. The efficacy of the a.i. is determined by comparing the degree of fungal attack on treated plants with that on untreated, similarly inoculated and incubated check plants. Each a.i. is tested at 4 to 5 concentrations. The synergie factor is calculated according to the COLBY method.

Erysiphe graminis = assay: Field test on Erysiphe graminis, winter wheat cv. Kanzler (Example B-6); conditions: for % infested leaf area after 29 days: winter wheat field trial, untreated control 15
Protocol: A field trial was carried out in Germany with winter wheat, cv.Kanzler. The experiment was arranged with 4 replicates in randomized plots of 12.5 m^2. Cyproconazole was used as a EC240, quinoxyfen as a SC500 and the mixture cyproconazole/quinoxyfen as a SC155 formulation. Cyproconazole was applied at 80 g a.i./ha, quinoxyfen at 75 g a.i./ha and the mixture contained the same amounts of the individual active ingredients. The spray volume of all treatments was 400 l/ha. Disease assessment of Erysiphe graminis was estimated 29 days after application when untrated control plants had 15% infected leaf area. Results are expressed as % activity calculated on the basis of % infected leaf area.

Uncinula necator = assay: Activity against Uncinula necator on grape plants (Example B-7)
Protocol: The deposit is then allowed to dry. One day later, the treated plants are inoculated by dusting freshly harvested conidia over the test plants; then the plants were incubated in a growt chamber for 10-14 days at +22° C. and 70% r.h. The efficacy of the test compounds is determined by comparing the degree of fungal attack with that on untreated, similarly inoculated check plants. I

[2] = curative application, single a.i. 0.1 mg a.i./l
[3] = protective application, single a.i. 0.1 mg a.i./l
[4] = protective application, single a.i. 0.25 mg a.i./l
[5] = Blumeria graminis, foliar, curative application, single a.i. 0.05 mg a.i./l, read-out: % activity observed

For `CC(C1CC1)C(O)(Cn1cncn1)c1ccc(Cl)cc1` (stereo not shown) [Cyproconazole], the “% activity observed” value (Septoria spp.; EC240, 80 g a.i./ha, 84 days after application) was 42%, the “% infested leaf after 84 days” value (Septoria spp.; EC240, 80 g a.i./ha) was 56% and the “% activity observed” value ([1]; curative application, single a.i. 0.05 mg a.i./l) was 7%. The “% activity observed” value [1, 2] was 8%, the “% activity observed” value ([1]; curative application, single a.i. 0.25 mg a.i./l) was 16% and the “% activity observed” value ([1]; curative application, single a.i. 0.5 mg a.i./l) was 24%. The “% activity observed” value ([1]; protective application, single a.i. 0.05 mg a.i./l) was 1%, the “% activity observed” value [1, 3] was 2% and the “% activity observed” value [1, 4] was 4%. The “% activity observed” value ([1]; protective application, single a.i. 0.5 mg a.i./l) was 12%, the “% activity observed” value (Erysiphe graminis; SL100, 80 g a.i./ha, 29 days after application) was 60% and the “% infested leaf area after 29 days” value (Erysiphe graminis; SL100, 80 g a.i./ha) was 6%.

`Cc1cc(C2CC2)nc(Nc2ccccc2)n1` [Cyprodinil] was tested, and the “% activity observed” value ([1]; curative application, single a.i. 25 mg a.i./l) was 25%.

Work on `CC(Cc1ccc(C(C)(C)C)cc1)CN1CCCCC1` (stereo not shown) [Fenpropidin] yielded an inhibition at 0.05 µg/mL [1, 5] of 0% and an inhibition at 0.5 µg/mL ([1]; Blumeria graminis, foliar, protective application, single a.i. 0.5 mg a.i./l, read-out: % activity observed) of 2%.

For `CCCC(Cn1cncn1)c1ccc(Cl)cc1Cl` (stereo not shown) [Penconazole], the “% activity observed” value (Uncinula necator; single a.i. 0.1 mg a.i./l) was 7% and the “% activity observed” value (Uncinula necator; single a.i. 1 mg a.i./l) was 42%.

For `CCCC1COC(Cn2cncn2)(c2ccc(Cl)cc2Cl)O1` (stereo not shown) [Propiconazole], the “% activity observed” value [1, 2] was 34%, the “% activity observed” value [1, 3] was 1% and the “% activity observed” value [1, 4] was 12%.

In the case of `Fc1ccc(Oc2ccnc3cc(Cl)cc(Cl)c23)cc1` [Quinoxyfen], the inhibition at 75 g/ha (Septoria spp.; 2016 h, SC500, 75 g a.i./ha, 84 days after application, read-out: % activity observed) is reported as 12%, the “% infested leaf after 84 days” value (Septoria spp.; SC500, 75 g a.i./ha) is reported as 85% and the inhibition at 0.05 µg/mL [1, 5] is reported as 1%. The inhibition at 0.1 µg/mL ([1]; Blumeria graminis, foliar, curative application, single a.i. 0.1 mg a.i./l, read-out: % activity observed) was 3%, the inhibition at 0.25 µg/mL ([1]; Blumeria graminis, foliar, curative application, single a.i. 0.25 mg a.i./l, read-out: % activity observed) was 6% and the inhibition at 0.5 µg/mL ([1]; Blumeria graminis, foliar, curative application, single a.i. 0.5 mg a.i./l, read-out: % activity observed) was 4%. It also gave an inhibition at 1 µg/mL ([1]; Blumeria graminis, foliar, curative application, single a.i. 1 mg a.i./l, read-out: % activity observed) of 7%, an inhibition at 0.05 µg/mL ([1]; Blumeria graminis, foliar, protective application, single a.i. 0.05 mg a.i./l, read-out: % activity observed) of 0% and an inhibition at 0.1 µg/mL ([1]; Blumeria graminis, foliar, protective application, single a.i. 0.1 mg a.i./l, read-out: % activity observed) of 1%. The inhibition at 0.25 µg/mL ([1]; Blumeria graminis, foliar, protective application, single a.i. 0.25 mg a.i./l, read-out: % activity observed) was 3%, the inhibition at 0.1 µg/mL (Uncinula necator; Erysiphe necator, single a.i. 0.1 mg a.i./l, read-out: % activity observed) was 48% and the inhibition at 1 µg/mL (Uncinula necator; Erysiphe necator, single a.i. 1 mg a.i./l, read-out: % activity observed) was 58%. For the same compound, the inhibition at 75 g/ha (Erysiphe graminis; Blumeria graminis, 696 h, SC500, 75 g a.i./ha, 29 days after application, read-out: % activity observed) was 33% and the “% infested leaf area after 29 days” value (Erysiphe graminis; SC500, 75 g a.i./ha) was 10%.
